Results from article PMC5363373, “Zirconium tetraazamacrocycle complexes display extraordinary stability and provide a new strategy for zirconium-89-based radiopharmaceutical development” (Chemical Science, 2016).

Experiments:
[1] = In vitro metal competition study; format: physicochemical; conditions: PBS pH 7.4, 37 C
Experimental: In vitro Metal Competition study. To a solution of metal cations [iron (III) chloride, cobalt (II) chloride, zinc (II) chloride, copper (II) chloride, magnesium (II) chloride, gallium (III) nitrate, gadolinium (III) chloride] (1 mM, 200 µL), was added 89Zr-labeled complex (0.1 mM, 10 µL, 80 μCi, 2.96 MBq) in PBS, pH 7.4. The resulting solutions (n = 3) were incubated at 37 °C for 7 days in a thermomixer. Dissociation of 89Zr from 89Zr-complexes was monitored by radio-TLC at 2 h, 1 d, 4 d and 7 d time point. All studies were performed in triplicate.

[2] = Biodistribution studies; format: in vivo, female NIH Swiss mice; conditions: mice, intravenous, 72 h post-injection
Experimental: Biodistribution Studies. Biodistribution studies were conducted using a modified literature procedure. 7 Briefly, female NIH Swiss mice (6-8 wk old, n=6) were injected with each 89Zr-labeled complex (0.55 MBq (15 μCi)/mouse) via the tail vein, and sacrificed at 2, 4, 24, 48, 72 h post-injection. Organs and tissues of interest were excised, weighted, and counted on a Perkin Elmer 2480 Wizard® gamma counter (Waltham, MA). The percent injected dose per gram (%ID/g) and percent injected dose per organ (%ID/organ) were calculated by comparison to a weighed, counted standard for each group (Tables S9 – S12).
Statistical Methods. All of the data are presented as mean±SD or mean (95% Confidence Interval). For statistical classification a student’s t test (two-tailed, unpaired) was performed using GraphPad Prism (San Diego, CA). Any p<0.05 was considered significant.

[3] = In vitro EDTA challenge study; format: physicochemical
Experimental: In vitro EDTA challenge study. In vitro EDTA challenge study was carried out by adding 10 µL of each 89Zr-labeled complex (70 μCi, 2.59 MBq) to 500 µL of EDTA (10 mM, 50 mM and 100 mM: pH 5 and pH 7) with a 1:100, 1:500, and 1:1000 ratio of ligand/EDTA. The solutions (n=4) were incubated at 37 °C for 7 days in a thermomixer. Samples were analyzed at 30 min, 1 h, 3 h, 6 h, 1 d, 3 d, 5 d and 7 d post administration to EDTA by radio-TLC using Varian ITLC-SA strips and 0.1 M EDTA (pH 5) as the mobile phase and gamma counting using an energy window of 500-1500 keV and standard protocols .

[4] = In vitro serum stability (radio-ITLC); format: in vitro ADME; conditions: 37 C, after 7 days
Experimental: In vitro serum stability. In vitro serum stability was carried out by adding 10 µL of each 89Zr-labeled complex (70 μCi, 2.59 MBq) to 500 µL of human serum. The solutions (n=4) were incubated at 37 °C for 7 days and were analyzed daily for 1 week by radio -TLC using Varian ITLC-SA strips and 0.1 M EDTA (pH 5) as the mobile phase and gamma counting using an energy window of 500-1500 keV and standard protocols . Serum samples were also analyzed after 7 days by size exclusion chromatography (SEC) using a Superdex 200 10/300 GLTM column (GE Healthcare Life Sciences, Piscataway, NJ) and phosphate buffered saline (PBS) as eluent with a flow rate of 0.5 mL/min.
Figure S30. Radio-ITLC of 89Zr-DOTA solution in human serum at 37 °C after 0 h (a) and 7 days (b). […]

In the case of `O=P1(O)CN2CCN3CCN4CCN(CC2)CP(=O)(O)[O][89Zr]([O]1)([O]P(=O)(O)C3)[O]P(=O)(O)C4` [89Zr-DOTP], the “% Intact of 89Zr-complexes” value ([1]; Co2+, 2 h) is reported as 99.1 ± 0.2%, the “% Intact of 89Zr-complexes” value ([1]; Co2+, 1 d) is reported as 97.2 ± 0.1% and the “% Intact of 89Zr-complexes” value ([1]; Co2+, 4 d) is reported as 95.3 ± 0.5%. For the same compound, the “% Intact of 89Zr-complexes” value ([1]; Co2+, 7 d) was 93.5 ± 1.3%, the “% Intact of 89Zr-complexes” value ([1]; Cu2+, 2 h) was 98.4 ± 0.1% and the “% Intact of 89Zr-complexes” value ([1]; Cu2+, 1 d) was 95.4 ± 0.2%. The “% Intact of 89Zr-complexes” value ([1]; Cu2+, 4 d) was 97.5 ± 0.7%, the “% Intact of 89Zr-complexes” value ([1]; Cu2+, 7 d) was 94.4 ± 1.3% and the “% Intact of 89Zr-complexes” value ([1]; Fe3+, 2 h) was 99.3 ± 0.1%. For the same compound, the “% Intact of 89Zr-complexes” value ([1]; Fe3+, 1 d) was 96.8 ± 1.2%, the “% Intact of 89Zr-complexes” value ([1]; Fe3+, 4 d) was 89.5 ± 0.7% and the “% Intact of 89Zr-complexes” value ([1]; Fe3+, 7 d) was 84.0 ± 0.4%. For the same compound, the “% Intact of 89Zr-complexes” value ([1]; Ga3+, 2 h) was 99.2 ± 0.1%, the “% Intact of 89Zr-complexes” value ([1]; Ga3+, 1 d) was 98.2 ± 0.2% and the “% Intact of 89Zr-complexes” value ([1]; Ga3+, 4 d) was 93.6 ± 0.6%. For the same compound, the “% Intact of 89Zr-complexes” value ([1]; Ga3+, 7 d) was 91.1 ± 1.4%, the “% Intact of 89Zr-complexes” value ([1]; Gd3+, 2 h) was 99.5 ± 0.4% and the “% Intact of 89Zr-complexes” value ([1]; Gd3+, 1 d) was 97.9 ± 0.4%. The “% Intact of 89Zr-complexes” value ([1]; Gd3+, 4 d) was 93.2 ± 1.0%, the “% Intact of 89Zr-complexes” value ([1]; Gd3+, 7 d) was 91.7 ± 2.0% and the “% Intact of 89Zr-complexes” value ([1]; Mg2+, 2 h) was 99.2 ± 0.2%. For the same compound, the “% Intact of 89Zr-complexes” value ([1]; Mg2+, 1 d) was 99.4 ± 0.1%, the “% Intact of 89Zr-complexes” value ([1]; Mg2+, 4 d) was 98.1 ± 0.1% and the “% Intact of 89Zr-complexes” value ([1]; Mg2+, 7 d) was 96.3 ± 0.4%. For the same compound, the “% Intact of 89Zr-complexes” value ([1]; Zn2+, 2 h) was 99.0 ± 0.1%, the “% Intact of 89Zr-complexes” value ([1]; Zn2+, 1 d) was 95.4 ± 0.3% and the “% Intact of 89Zr-complexes” value ([1]; Zn2+, 4 d) was 89.4 ± 1.5%. For the same compound, the “% Intact of 89Zr-complexes” value ([1]; Zn2+, 7 d) was 84.7 ± 2.7%, the Radioactivity in blood [2] was 0.0005 ± 0.001 % ID per g and the Radioactivity in bone [2] was 2.63 ± 0.12 % ID per g. The Radioactivity in kidney [2] was 0.32 ± 0.045 % ID per g, the Radioactivity in liver [2] was 0.036 ± 0.002 % ID per g and the “% Intact of 89Zr-complexes” value ([3]; EDTA 100-fold, pH 5.0, 37 C, 1 h) was 98.6 ± 0.3%. For the same compound, the “% Intact of 89Zr-complexes” value ([3]; EDTA 100-fold, pH 5.0, 37 C, 1 d) was 91.8 ± 0.9%, the “% Intact of 89Zr-complexes” value ([3]; EDTA 100-fold, pH 5.0, 37 C, 3 d) was 84.3 ± 0.7% and the “% Intact of 89Zr-complexes” value ([3]; EDTA 100-fold, pH 5.0, 37 C, 5 d) was 78.6 ± 1.0%. The “% Intact of 89Zr-complexes” value ([3]; EDTA 100-fold, pH 5.0, 37 C, 7 d) was 56.5 ± 1.4%, the “% Intact of 89Zr-complexes” value ([3]; EDTA 100-fold, pH 7.0, 37 C, 1 h) was 99.8 ± 0.1% and the “% Intact of 89Zr-complexes” value ([3]; EDTA 100-fold, pH 7.0, 37 C, 1 d) was 98.6 ± 0.1%. For the same compound, the “% Intact of 89Zr-complexes” value ([3]; EDTA 100-fold, pH 7.0, 37 C, 3 d) was 96.8 ± 0.3%, the “% Intact of 89Zr-complexes” value ([3]; EDTA 100-fold, pH 7.0, 37 C, 5 d) was 94.5 ± 0.5% and the “% Intact of 89Zr-complexes” value ([3]; EDTA 100-fold, pH 7.0, 37 C, 7 d) was 92.5 ± 0.4%. For the same compound, the “% Intact of 89Zr-complexes” value ([3]; EDTA 500-fold, pH 5.0, 37 C, 1 h) was 97.4 ± 0.4%, the “% Intact of 89Zr-complexes” value ([3]; EDTA 500-fold, pH 5.0, 37 C, 1 d) was 89.4 ± 0.7% and the “% Intact of 89Zr-complexes” value ([3]; EDTA 500-fold, pH 5.0, 37 C, 3 d) was 72.4 ± 1.4%. The “% Intact of 89Zr-complexes” value ([3]; EDTA 500-fold, pH 5.0, 37 C, 5 d) was 66.7 ± 0.7%, the “% Intact of 89Zr-complexes” value ([3]; EDTA 500-fold, pH 5.0, 37 C, 7 d) was 53.8 ± 0.8% and the “% Intact of 89Zr-complexes” value ([3]; EDTA 500-fold, pH 7.0, 37 C, 1 h) was 99.5 ± 0.3%. For the same compound, the “% Intact of 89Zr-complexes” value ([3]; EDTA 500-fold, pH 7.0, 37 C, 1 d) was 98.2 ± 0.1%, the “% Intact of 89Zr-complexes” value ([3]; EDTA 500-fold, pH 7.0, 37 C, 3 d) was 94.9 ± 1.1% and the “% Intact of 89Zr-complexes” value ([3]; EDTA 500-fold, pH 7.0, 37 C, 5 d) was 91.4 ± 0.3%. For the same compound, the “% Intact of 89Zr-complexes” value ([3]; EDTA 500-fold, pH 7.0, 37 C, 7 d) was 89.3 ± 0.6%, the “% Intact of 89Zr-complexes” value ([3]; EDTA 1000-fold, pH 5.0, 37 C, 1 h) was 96.3 ± 0.5% and the “% Intact of 89Zr-complexes” value ([3]; EDTA 1000-fold, pH 5.0, 37 C, 1 d) was 87.3 ± 1.2%. The “% Intact of 89Zr-complexes” value ([3]; EDTA 1000-fold, pH 5.0, 37 C, 3 d) was 67.5 ± 1.1%, the “% Intact of 89Zr-complexes” value ([3]; EDTA 1000-fold, pH 5.0, 37 C, 5 d) was 58.9 ± 1.4% and the “% Intact of 89Zr-complexes” value ([3]; EDTA 1000-fold, pH 5.0, 37 C, 7 d) was 43.7 ± 1.1%. For the same compound, the “% Intact of 89Zr-complexes” value ([3]; EDTA 1000-fold, pH 7.0, 37 C, 1 h) was 99.2 ± 0.1%, the “% Intact of 89Zr-complexes” value ([3]; EDTA 1000-fold, pH 7.0, 37 C, 1 d) was 97.9 ± 0.1% and the “% Intact of 89Zr-complexes” value ([3]; EDTA 1000-fold, pH 7.0, 37 C, 3 d) was 91.5 ± 0.6%. The “% Intact of 89Zr-complexes” value ([3]; EDTA 1000-fold, pH 7.0, 37 C, 5 d) was 84.9 ± 0.6%, the “% Intact of 89Zr-complexes” value ([3]; EDTA 1000-fold, pH 7.0, 37 C, 7 d) was 79.4 ± 1.2% and the “Radio-ITLC peak of complex in human serum” value [4] was 95.2%.
